According to ChEMBL document CHEMBL4725218, “Deep Learning Enhancing Kinome-Wide Polypharmacology Profiling: Model Construction and Experiment Validation” (J Med Chem, 2020):

What was measured:
[1] = target: RAF proto-oncogene serine/threonine-protein kinase (Homo sapiens) (UniProt P04049); assay: Inhibition of human C-Raf assessed as remaining enzyme activity at 1 uM
[2] = target: NT-3 growth factor receptor (Homo sapiens) (UniProt Q16288); assay: Inhibition of human TRKC assessed as remaining enzyme activity at 1 uM
[3] = target: RAF proto-oncogene serine/threonine-protein kinase (Homo sapiens) (UniProt P04049); assay: Inhibition of human C-Raf assessed as remaining enzyme activity at 0.01 uM
[4] = target: LIM domain kinase 1 (Homo sapiens) (UniProt P53667); assay: Inhibition of human LIMK1 assessed as remaining enzyme activity at 1 uM
[5] = target: Tyrosine-protein kinase FRK (Homo sapiens) (UniProt P42685); assay: Inhibition of human PTK5 assessed as remaining enzyme activity at 0.01 uM
[6] = target: Vascular endothelial growth factor receptor 1 (Homo sapiens) (UniProt P17948); assay: Inhibition of human VEGFR1 assessed as remaining enzyme activity at 0.1 uM
[7] = target: T1, Ephrin type-A receptor 8 (Homo sapiens) (UniProt P29322); assay: Inhibition of human EphA8 assessed as remaining enzyme activity at 0.01 uM
T1 sequence (whole entry): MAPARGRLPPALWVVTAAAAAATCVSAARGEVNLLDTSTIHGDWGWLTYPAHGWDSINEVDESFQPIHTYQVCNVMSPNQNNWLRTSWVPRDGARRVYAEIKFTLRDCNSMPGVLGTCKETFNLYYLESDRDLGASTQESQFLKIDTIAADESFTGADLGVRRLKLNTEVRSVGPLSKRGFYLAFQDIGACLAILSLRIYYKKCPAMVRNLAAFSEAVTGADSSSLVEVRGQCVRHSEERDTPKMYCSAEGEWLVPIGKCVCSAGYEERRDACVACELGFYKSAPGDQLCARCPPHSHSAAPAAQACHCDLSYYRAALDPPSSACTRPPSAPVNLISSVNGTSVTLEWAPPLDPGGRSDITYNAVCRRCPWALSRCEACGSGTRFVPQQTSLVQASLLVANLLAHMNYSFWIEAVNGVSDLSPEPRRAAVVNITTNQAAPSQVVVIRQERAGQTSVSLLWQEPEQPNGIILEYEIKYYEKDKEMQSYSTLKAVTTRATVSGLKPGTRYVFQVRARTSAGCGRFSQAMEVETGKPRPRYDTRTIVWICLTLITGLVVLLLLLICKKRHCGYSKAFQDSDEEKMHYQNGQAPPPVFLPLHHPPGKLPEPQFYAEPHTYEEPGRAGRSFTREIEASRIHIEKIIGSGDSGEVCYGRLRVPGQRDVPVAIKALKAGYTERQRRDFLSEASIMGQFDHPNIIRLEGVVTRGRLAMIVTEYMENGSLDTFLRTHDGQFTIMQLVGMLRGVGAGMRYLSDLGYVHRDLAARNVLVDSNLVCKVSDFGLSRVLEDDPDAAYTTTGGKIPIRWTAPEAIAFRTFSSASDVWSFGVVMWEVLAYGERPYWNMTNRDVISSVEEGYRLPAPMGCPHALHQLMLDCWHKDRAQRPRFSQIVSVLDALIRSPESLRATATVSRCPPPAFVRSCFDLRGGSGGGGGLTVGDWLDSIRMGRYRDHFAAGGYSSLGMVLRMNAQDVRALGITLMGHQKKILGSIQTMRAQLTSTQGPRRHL

Homo sapiens = organism: Homo sapiens; assay: Inhibition of human p70S6K assessed as remaining enzyme activity at 1 uM
[8] = target: Ephrin type-A receptor 2 (Homo sapiens) (UniProt P29317); assay: Inhibition of human EphA2 assessed as remaining enzyme activity at 0.01 uM
[9] = target: T2, Homeodomain-interacting protein kinase 4 (Homo sapiens) (UniProt Q8NE63); assay: Inhibition of human HIPK4 assessed as remaining enzyme activity at 1 uM
T2 sequence (whole entry): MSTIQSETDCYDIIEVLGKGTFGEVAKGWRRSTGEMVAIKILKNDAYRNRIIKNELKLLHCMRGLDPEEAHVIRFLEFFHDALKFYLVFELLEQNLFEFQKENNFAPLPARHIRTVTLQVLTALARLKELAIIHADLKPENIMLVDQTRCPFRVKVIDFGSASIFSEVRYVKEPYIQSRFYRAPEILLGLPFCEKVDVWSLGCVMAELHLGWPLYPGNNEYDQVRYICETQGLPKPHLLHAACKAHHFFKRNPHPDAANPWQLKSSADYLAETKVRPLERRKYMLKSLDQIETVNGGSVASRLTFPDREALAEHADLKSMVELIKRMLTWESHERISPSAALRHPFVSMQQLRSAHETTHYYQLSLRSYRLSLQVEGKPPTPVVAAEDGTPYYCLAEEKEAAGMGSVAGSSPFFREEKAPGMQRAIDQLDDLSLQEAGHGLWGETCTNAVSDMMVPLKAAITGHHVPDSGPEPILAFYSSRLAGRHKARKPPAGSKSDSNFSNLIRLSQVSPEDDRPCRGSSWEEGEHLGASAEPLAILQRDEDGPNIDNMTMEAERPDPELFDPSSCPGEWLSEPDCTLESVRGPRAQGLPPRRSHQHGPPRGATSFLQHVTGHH

[10] = target: Homeodomain-interacting protein kinase 3 (Homo sapiens) (UniProt Q9H422); assay: Inhibition of human HIPK3 assessed as remaining enzyme activity at 0.1 uM
[11] = target: Tyrosine-protein kinase ABL1 (Mus musculus) (UniProt P00520); assay: Inhibition of mouse Abl assessed as remaining enzyme activity at 1 uM
[12] = target: Tyrosine-protein kinase Blk (Mus musculus) (UniProt P16277); assay: Inhibition of mouse BLK assessed as remaining enzyme activity at 0.1 uM
[13] = target: Tyrosine-protein kinase Blk (Mus musculus) (UniProt P16277); assay: Inhibition of mouse BLK assessed as remaining enzyme activity at 0.01 uM
[14] = target: Tyrosine-protein kinase Lyn (Homo sapiens) (UniProt P07948); assay: Inhibition of human LYN assessed as remaining enzyme activity at 0.1 uM
[15] = target: RAF proto-oncogene serine/threonine-protein kinase (Homo sapiens) (UniProt P04049); assay: Inhibition of human RAF1 assessed as remaining enzyme activity at 0.1 uM
[16] = target: Tyrosine-protein kinase Lyn (Homo sapiens) (UniProt P07948); assay: Inhibition of human LYN assessed as remaining enzyme activity at 1 uM
[17] = target: Ephrin type-A receptor 2 (Homo sapiens) (UniProt P29317); assay: Inhibition of human EphA2 assessed as remaining enzyme activity at 0.1 uM
[18] = target: Homeodomain-interacting protein kinase 2 (Homo sapiens) (UniProt Q9H2X6); assay: Inhibition of human HIPK2 assessed as remaining enzyme activity at 0.01 uM
[19] = target: Ephrin type-A receptor 2 (Homo sapiens) (UniProt P29317); assay: Inhibition of human EphA2 assessed as remaining enzyme activity at 1 uM
[20] = target: RAF proto-oncogene serine/threonine-protein kinase (Homo sapiens) (UniProt P04049); assay: Inhibition of human C-Raf assessed as remaining enzyme activity at 0.1 uM
[21] = target: Serine/threonine-protein kinase 10 (Homo sapiens) (UniProt O94804); assay: Inhibition of human LOK assessed as remaining enzyme activity at 1 uM
[22] = target: Homeodomain-interacting protein kinase 3 (Homo sapiens) (UniProt Q9H422); assay: Inhibition of human HIPK3 assessed as remaining enzyme activity at 0.01 uM
[23] = target: Homeodomain-interacting protein kinase 2 (Homo sapiens) (UniProt Q9H2X6); assay: Inhibition of human HIPK2 assessed as remaining enzyme activity at 1 uM
[24] = target: Homeodomain-interacting protein kinase 3 (Homo sapiens) (UniProt Q9H422); assay: Inhibition of human HIPK3 assessed as remaining enzyme activity at 1 uM

Chain of Homeodomain-interacting protein kinase 3 (Homo sapiens) (Q9H422 whole entry, looked up): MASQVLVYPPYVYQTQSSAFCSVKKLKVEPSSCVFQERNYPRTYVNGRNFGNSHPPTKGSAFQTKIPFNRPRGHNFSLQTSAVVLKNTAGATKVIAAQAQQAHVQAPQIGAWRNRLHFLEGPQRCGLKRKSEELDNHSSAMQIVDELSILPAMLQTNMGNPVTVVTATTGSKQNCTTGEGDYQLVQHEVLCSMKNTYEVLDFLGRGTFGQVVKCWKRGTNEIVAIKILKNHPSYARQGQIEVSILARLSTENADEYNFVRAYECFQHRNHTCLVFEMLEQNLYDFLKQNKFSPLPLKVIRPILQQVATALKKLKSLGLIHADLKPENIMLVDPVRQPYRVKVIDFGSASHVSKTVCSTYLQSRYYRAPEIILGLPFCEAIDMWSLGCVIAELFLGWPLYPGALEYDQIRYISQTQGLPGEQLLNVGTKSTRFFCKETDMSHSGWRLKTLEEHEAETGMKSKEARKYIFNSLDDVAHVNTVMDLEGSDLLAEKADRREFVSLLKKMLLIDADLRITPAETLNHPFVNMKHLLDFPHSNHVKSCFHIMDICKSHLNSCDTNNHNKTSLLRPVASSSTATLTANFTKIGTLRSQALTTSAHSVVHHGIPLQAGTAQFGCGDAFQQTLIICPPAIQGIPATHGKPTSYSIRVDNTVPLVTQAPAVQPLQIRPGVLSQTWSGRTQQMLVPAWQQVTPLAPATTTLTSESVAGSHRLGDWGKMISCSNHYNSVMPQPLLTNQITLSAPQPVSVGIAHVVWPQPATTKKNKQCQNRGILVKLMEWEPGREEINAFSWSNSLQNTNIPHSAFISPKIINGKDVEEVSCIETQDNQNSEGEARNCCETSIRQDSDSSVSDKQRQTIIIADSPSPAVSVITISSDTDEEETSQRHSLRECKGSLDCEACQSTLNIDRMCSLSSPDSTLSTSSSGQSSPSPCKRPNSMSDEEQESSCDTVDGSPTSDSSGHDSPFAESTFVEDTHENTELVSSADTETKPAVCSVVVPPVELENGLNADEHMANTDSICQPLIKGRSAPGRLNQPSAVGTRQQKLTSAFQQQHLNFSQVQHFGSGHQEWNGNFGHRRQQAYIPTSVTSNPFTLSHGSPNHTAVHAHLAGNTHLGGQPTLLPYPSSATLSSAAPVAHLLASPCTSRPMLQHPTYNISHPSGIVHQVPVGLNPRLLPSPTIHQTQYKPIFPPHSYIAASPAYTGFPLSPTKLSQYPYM
Chain of RAF proto-oncogene serine/threonine-protein kinase (Homo sapiens) (P04049 whole entry, the tested form may be a part): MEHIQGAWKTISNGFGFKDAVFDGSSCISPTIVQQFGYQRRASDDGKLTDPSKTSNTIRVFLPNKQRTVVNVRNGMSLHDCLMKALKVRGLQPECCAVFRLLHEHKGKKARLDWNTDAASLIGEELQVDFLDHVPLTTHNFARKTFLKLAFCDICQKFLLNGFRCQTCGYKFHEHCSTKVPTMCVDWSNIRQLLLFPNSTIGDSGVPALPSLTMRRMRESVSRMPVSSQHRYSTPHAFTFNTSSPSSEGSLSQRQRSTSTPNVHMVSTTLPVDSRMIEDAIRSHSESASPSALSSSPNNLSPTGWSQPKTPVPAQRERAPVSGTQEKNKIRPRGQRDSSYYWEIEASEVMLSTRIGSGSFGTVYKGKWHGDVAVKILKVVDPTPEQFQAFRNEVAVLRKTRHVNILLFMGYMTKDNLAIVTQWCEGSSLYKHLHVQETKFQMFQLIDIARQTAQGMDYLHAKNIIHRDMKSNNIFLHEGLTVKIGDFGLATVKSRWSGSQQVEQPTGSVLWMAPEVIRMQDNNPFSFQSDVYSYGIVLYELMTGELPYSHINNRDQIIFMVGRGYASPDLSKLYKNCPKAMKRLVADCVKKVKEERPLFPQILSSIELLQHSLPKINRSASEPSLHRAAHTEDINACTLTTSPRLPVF
Chain of Ephrin type-A receptor 2 (Homo sapiens) (P29317 whole entry): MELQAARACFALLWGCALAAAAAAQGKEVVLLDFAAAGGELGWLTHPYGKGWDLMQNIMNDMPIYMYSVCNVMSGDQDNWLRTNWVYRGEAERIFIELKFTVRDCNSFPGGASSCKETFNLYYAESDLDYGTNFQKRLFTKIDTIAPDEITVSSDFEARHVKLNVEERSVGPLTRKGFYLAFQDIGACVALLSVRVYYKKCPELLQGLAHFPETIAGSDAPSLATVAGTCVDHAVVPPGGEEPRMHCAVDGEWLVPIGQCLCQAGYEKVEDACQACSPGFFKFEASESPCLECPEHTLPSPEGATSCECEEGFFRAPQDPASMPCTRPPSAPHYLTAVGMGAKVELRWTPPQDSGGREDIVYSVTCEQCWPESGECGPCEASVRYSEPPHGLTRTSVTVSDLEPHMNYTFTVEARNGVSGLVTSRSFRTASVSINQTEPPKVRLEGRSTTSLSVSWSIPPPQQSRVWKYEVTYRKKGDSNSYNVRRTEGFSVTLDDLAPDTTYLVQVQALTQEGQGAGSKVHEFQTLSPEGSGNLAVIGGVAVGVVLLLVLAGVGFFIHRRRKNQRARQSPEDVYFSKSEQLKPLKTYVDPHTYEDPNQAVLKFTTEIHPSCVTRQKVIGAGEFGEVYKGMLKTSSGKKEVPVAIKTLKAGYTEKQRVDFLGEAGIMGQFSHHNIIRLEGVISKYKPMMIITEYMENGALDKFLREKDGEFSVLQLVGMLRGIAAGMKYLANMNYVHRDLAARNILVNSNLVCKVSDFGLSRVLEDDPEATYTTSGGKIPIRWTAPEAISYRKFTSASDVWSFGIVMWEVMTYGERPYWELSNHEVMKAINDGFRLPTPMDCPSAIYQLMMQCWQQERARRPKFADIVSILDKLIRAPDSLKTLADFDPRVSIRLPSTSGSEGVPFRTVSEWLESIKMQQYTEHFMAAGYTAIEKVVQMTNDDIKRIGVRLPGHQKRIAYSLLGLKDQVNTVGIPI
Chain of Tyrosine-protein kinase Blk (Mus musculus) (P16277 whole entry): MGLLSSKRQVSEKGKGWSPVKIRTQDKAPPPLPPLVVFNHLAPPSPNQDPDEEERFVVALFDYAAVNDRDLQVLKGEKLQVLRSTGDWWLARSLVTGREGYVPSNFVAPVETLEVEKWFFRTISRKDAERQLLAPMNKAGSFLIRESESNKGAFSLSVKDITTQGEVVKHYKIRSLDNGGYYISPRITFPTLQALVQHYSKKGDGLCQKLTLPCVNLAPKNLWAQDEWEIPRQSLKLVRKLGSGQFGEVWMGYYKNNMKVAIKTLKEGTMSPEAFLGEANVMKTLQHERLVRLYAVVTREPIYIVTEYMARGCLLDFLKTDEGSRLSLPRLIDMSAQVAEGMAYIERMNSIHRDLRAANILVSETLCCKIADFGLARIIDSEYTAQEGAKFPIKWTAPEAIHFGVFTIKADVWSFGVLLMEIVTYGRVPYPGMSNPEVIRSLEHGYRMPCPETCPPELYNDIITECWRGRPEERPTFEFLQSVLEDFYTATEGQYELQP
Chain of Homeodomain-interacting protein kinase 2 (Homo sapiens) (Q9H2X6 whole entry, looked up): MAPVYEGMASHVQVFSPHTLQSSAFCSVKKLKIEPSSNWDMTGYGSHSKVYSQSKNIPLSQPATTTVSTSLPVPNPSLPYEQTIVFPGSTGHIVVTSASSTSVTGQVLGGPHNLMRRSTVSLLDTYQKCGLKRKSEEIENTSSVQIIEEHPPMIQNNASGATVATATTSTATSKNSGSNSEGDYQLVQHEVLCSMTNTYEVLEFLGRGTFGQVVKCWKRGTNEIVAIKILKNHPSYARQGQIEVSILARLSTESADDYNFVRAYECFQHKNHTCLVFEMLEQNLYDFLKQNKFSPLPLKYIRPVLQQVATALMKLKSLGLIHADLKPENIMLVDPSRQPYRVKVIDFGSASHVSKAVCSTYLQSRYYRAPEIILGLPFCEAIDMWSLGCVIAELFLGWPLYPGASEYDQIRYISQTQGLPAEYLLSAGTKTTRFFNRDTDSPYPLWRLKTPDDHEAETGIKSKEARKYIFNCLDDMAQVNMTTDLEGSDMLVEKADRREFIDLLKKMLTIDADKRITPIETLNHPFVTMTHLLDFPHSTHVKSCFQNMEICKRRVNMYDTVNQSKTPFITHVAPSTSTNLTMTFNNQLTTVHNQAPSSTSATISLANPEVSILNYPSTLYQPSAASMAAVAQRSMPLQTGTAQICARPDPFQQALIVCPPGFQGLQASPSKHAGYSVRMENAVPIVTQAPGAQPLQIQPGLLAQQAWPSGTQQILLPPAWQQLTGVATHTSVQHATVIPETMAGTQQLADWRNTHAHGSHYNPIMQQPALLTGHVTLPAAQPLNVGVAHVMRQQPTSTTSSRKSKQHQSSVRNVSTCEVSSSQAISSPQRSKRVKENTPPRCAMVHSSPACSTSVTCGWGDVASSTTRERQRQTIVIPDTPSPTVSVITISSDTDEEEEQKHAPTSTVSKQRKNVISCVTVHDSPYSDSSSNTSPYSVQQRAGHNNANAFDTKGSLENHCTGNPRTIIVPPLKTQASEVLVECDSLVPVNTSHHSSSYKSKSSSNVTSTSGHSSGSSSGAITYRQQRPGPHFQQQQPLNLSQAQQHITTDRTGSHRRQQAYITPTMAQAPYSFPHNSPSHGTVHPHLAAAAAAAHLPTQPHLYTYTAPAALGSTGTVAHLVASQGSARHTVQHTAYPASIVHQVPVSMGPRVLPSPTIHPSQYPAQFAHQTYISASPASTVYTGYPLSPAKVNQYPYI
Chain of Tyrosine-protein kinase Lyn (Homo sapiens) (P07948 2-512 limits assumed): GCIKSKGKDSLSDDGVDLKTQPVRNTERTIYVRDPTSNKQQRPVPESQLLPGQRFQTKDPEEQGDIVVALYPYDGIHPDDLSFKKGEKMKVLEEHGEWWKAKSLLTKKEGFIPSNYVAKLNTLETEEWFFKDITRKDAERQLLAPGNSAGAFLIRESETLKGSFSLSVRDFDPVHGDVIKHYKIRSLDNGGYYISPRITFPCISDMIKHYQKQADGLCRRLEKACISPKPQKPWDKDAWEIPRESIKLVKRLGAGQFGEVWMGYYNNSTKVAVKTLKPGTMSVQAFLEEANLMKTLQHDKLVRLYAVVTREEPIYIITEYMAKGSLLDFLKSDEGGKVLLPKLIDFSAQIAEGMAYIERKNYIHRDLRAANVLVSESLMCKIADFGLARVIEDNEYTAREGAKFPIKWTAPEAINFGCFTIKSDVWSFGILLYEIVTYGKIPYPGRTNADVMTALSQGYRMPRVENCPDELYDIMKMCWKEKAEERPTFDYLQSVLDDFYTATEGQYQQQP

Structure (SMILES): CNC(=O)c1cc(Oc2ccc(NC(=O)Nc3ccc(Cl)c(C(F)(F)F)c3)c(F)c2)ccn1
- Activity [1]: 8%
- Activity [2]: 1%
- Activity [3]: 93%
- Activity [4]: 46%
- Activity [5]: 64%
- Activity [6]: 3%
- Activity [7]: 85%
- Activity (Homo sapiens): 36%
- Activity [8]: 90%
- Activity [9]: -1%
- Activity [10]: 68%
- Activity [11]: -1%
- Activity [12]: 45%
- Activity [13]: 52%
- Activity [14]: 21%
- Activity [15]: 57%
- Activity [16]: 1%
- Activity [17]: 58%
- Activity [18]: 96%
- Activity [19]: 5%
- Activity [20]: 57%
- Activity [21]: 34%
- Activity [22]: 103%
- Activity [23]: 13%
- Activity [24]: 12%
